Source: ChEMBL document CHEMBL1146385, “Discovery of novel phenoxyacetic acid derivatives as antimycobacterial agents” (2007)
In brackets after ≈: the same amount, converted by molar mass.

Test system: Mycobacterium tuberculosis
Assay: Antimycobacterial activity against Mycobacterium tuberculosis H37Rv ATCC 27294 by broth micro dilution assay
Type: functional

Row | SMILES | MIC [µg/mL]
1 | COc1cc(C2=NN(C(N)=S)C(Cc3ccccc3)C2)ccc1OCC(=O)O (configuration not stated) | 6.25 (≈ 15.6 µM)
2 | COc1cc(C2=NN(C(N)=S)C(c3ccccc3O)C2)ccc1OCC(=O)O (configuration not stated) | 0.58 (≈ 1.44 µM)
3 | COc1cc(C2=NN(C(N)=O)C(c3ccccc3)C2)ccc1OCC(=O)O (configuration not stated) | 6.25 (≈ 16.9 µM)
4 | COc1cc(C2=NN(C(N)=O)C(c3ccc(C)cc3)C2)ccc1OCC(=O)O (configuration not stated) | 4.12 (≈ 10.7 µM)
5 | COc1cc(C2=NN(C(N)=S)C(c3ccc(O)cc3)C2)ccc1OCC(=O)O (configuration not stated) | 0.2 (≈ 0.498 µM)
6 | COc1cc(C2=NN(C(N)=O)C(c3ccccc3Cl)C2)ccc1OCC(=O)O (configuration not stated) | 1.26 (≈ 3.12 µM)
7 | COc1cc(C2=NN(C(N)=O)C(c3ccc(N)cc3)C2)ccc1OCC(=O)O (configuration not stated) | 5.32 (≈ 13.8 µM)
8 | COc1cc(C2=NN(C(N)=S)C(c3ccc(C)cc3)C2)ccc1OCC(=O)O (configuration not stated) | 6.15 (≈ 15.4 µM)
9 | COc1cc(C2=NN(C(N)=S)C(c3ccc(Cl)cc3)C2)ccc1OCC(=O)O (configuration not stated) | 0.06 (≈ 0.143 µM)
10 | COc1cc(C2=NN(C(N)=S)C(c3ccccc3Cl)C2)ccc1OCC(=O)O (configuration not stated) | 0.12 (≈ 0.286 µM)
11 | COc1cc(C2=NN(C(N)=O)C(c3ccc(F)cc3)C2)ccc1OCC(=O)O (configuration not stated) | 3.16 (≈ 8.16 µM)
12 | COc1cc(C2=NN(C(N)=O)C(c3ccc(Cl)cc3)C2)ccc1OCC(=O)O (configuration not stated) | 0.13 (≈ 0.322 µM)
13 | COc1cc(C2=NN(C(N)=O)C(Cc3ccccc3)C2)ccc1OCC(=O)O (configuration not stated) | 6.25 (≈ 16.3 µM)
14 | COc1cc(C2=NN(C(N)=S)C(c3ccc(N)cc3)C2)ccc1OCC(=O)O (configuration not stated) | 12.5 (≈ 31.2 µM)
15 | COc1cc(C2=NN(C(N)=S)C(c3cccc([N+](=O)[O-])c3)C2)ccc1OCC(=O)O (configuration not stated) | 6.25 (≈ 14.5 µM)
16 | COc1cc(C2=NN(C(N)=S)C(c3ccccc3)C2)ccc1OCC(=O)O (configuration not stated) | 6.25 (≈ 16.2 µM)
17 | COc1cc(C2=NN(C(N)=O)C(c3ccccc3O)C2)ccc1OCC(=O)O (configuration not stated) | 0.58 (≈ 1.51 µM)
18 | COc1cc(C2=NN(C(N)=O)C(c3cccc([N+](=O)[O-])c3)C2)ccc1OCC(=O)O (configuration not stated) | 6.25 (≈ 15.1 µM)
19 | COc1cc(C2=NN(C(N)=S)C(c3ccc(F)cc3)C2)ccc1OCC(=O)O (configuration not stated) | 0.96 (≈ 2.38 µM)
20 | COc1cc(C2=NN(C(N)=O)C(c3ccc(O)cc3)C2)ccc1OCC(=O)O (configuration not stated) | 1.23 (≈ 3.19 µM)
21 | COc1cc(C2=NN(C(N)=O)C(c3ccc([N+](=O)[O-])cc3)C2)ccc1OCC(=O)O (configuration not stated) | 6.25 (≈ 15.1 µM)
22 | COc1cc(C2=NN(C(N)=S)C(c3ccc([N+](=O)[O-])cc3)C2)ccc1OCC(=O)O (configuration not stated) | 6.32 (≈ 14.7 µM)
